Reference: ChEMBL document CHEMBL1201862, “PubChem BioAssay data set” (2004)
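1) Cells in 96-well plates. 2) Compound, 48 h, 5 concentrations. 3) Linear interpolation between surrounding doses. 4) Unreached endpoint = highest concentration. The concentration for 50% growth inhibition is given as GI50.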 Activity calls are given as the source filed them. No stated cut-off is given here; in the data, active = GI50 up to about 1.1 µM and inactive = higher.

Key:
Assay in all cases: inhibition of tumour cell growth, NCI panel, 48 h
IGROV-1 = system: IGROV-1
HT-29 = system: HT-29
SK-MEL-28 = system: SK-MEL-28
NCI-H226 = system: NCI-H226
HCT-116 = system: HCT-116
OVCAR-4 = system: OVCAR-4
SF-268 = system: SF-268
Malme-3M = system: Malme-3M
SR = system: SR
SK-OV-3 = system: SK-OV-3
EKVX = system: EKVX
SF-295 = system: SF-295
LXFL 529 = system: LXFL 529
SK-MEL-5 = system: SK-MEL-5
M14 = system: M14
HOP-62 = system: HOP-62

Measured: GI50

O=C(CCC(=O)N/N=C/c1ccccc1O)N/N=C/c1ccccc1O
inactive: IGROV-1 33.9 µM | HT-29 > 100 µM | SK-MEL-28 41.1 µM | NCI-H226 > 100 µM | HCT-116 80.7 µM | OVCAR-4 > 100 µM | SF-268 18.8 µM | Malme-3M > 100 µM | SR > 100 µM | SK-OV-3 18.9 µM | EKVX 20.9 µM | SF-295 32.5 µM | LXFL 529 > 100 µM | SK-MEL-5 > 100 µM

Cc1cc(C(O)CCCc2ccccc2)cc(C)c1O (stereo not given)
inactive: IGROV-1 83.6 µM | SK-MEL-28 34.4 µM | NCI-H226 24 µM | SF-268 28.4 µM | M14 56.1 µM | Malme-3M 18.9 µM | SK-OV-3 > 100 µM | EKVX 20.5 µM | SF-295 28.8 µM | HOP-62 33.3 µM | LXFL 529 47.5 µM | SK-MEL-5 22.5 µM

O=C(Nc1nc2ncn(CCOC(=O)c3ccccc3)c2c(=S)[nH]1)c1ccccc1
inactive: IGROV-1 > 100 µM | HT-29 > 100 µM | SK-MEL-28 42.3 µM | NCI-H226 47.5 µM | HCT-116 > 100 µM | OVCAR-4 23.5 µM | SF-268 13.5 µM | M14 > 100 µM | Malme-3M 42.5 µM | SK-OV-3 > 100 µM | EKVX > 100 µM | SF-295 45 µM | HOP-62 28.2 µM | LXFL 529 49.3 µM | SK-MEL-5 > 100 µM

COC1OC(COCc2ccc(Cl)cc2)C(OCc2ccc(Cl)cc2)C1N=[N+]=[N-] (stereo not given)
inactive: IGROV-1 72.3 µM | HT-29 > 100 µM | SK-MEL-28 > 100 µM | NCI-H226 > 100 µM | HCT-116 > 100 µM | OVCAR-4 > 100 µM | M14 > 100 µM | Malme-3M > 100 µM | SR 36.2 µM | SK-OV-3 > 100 µM | EKVX > 100 µM | SF-295 > 100 µM | LXFL 529 95.5 µM | SK-MEL-5 44 µM

Cc1nc2c(nc1C)C(=O)C1=C(C2=O)C2C=CC1CC2
inactive: IGROV-1 2.63 µM | HT-29 13.9 µM | SK-MEL-28 18.3 µM | NCI-H226 14.5 µM | HCT-116 1.54 µM | OVCAR-4 1.93 µM | SF-268 5.42 µM | M14 12.8 µM | Malme-3M 11.8 µM | SK-OV-3 40.3 µM | EKVX 7 µM | SF-295 11.7 µM | HOP-62 22.3 µM | LXFL 529 1.75 µM | SK-MEL-5 2.05 µM

CC1CN1c1c(C(=O)/C=C/c2ccc(Cl)cc2)c(-c2ccccc2)nn(C)c1=O (stereo not given)
inactive: IGROV-1 3.05 µM | HT-29 3.65 µM | SK-MEL-28 3.89 µM | NCI-H226 4.99 µM | HCT-116 2.52 µM | OVCAR-4 2.61 µM | SF-268 3.98 µM | M14 1.95 µM | Malme-3M 8.97 µM | SK-OV-3 2.59 µM | EKVX 3.63 µM | SF-295 3.96 µM | HOP-62 2.82 µM | LXFL 529 2.13 µM

O=C(COc1ccccc1Cl)N1N=C(c2ccccc2)CC1(O)c1ccccc1 (stereo not given)
inactive: IGROV-1 17.9 µM | HT-29 17 µM | SK-MEL-28 17.4 µM | NCI-H226 18.5 µM | HCT-116 16.4 µM | OVCAR-4 11.3 µM | SF-268 24.6 µM | M14 17 µM | Malme-3M 14.9 µM | SR 4.61 µM | SK-OV-3 14.9 µM | SF-295 20.5 µM | HOP-62 15.1 µM | LXFL 529 17.1 µM

Nc1ccc(C2=N/C(=C\c3cccc(N)c3)C(=O)O2)cc1
inactive: IGROV-1 > 100 µM | HT-29 > 100 µM | SK-MEL-28 > 100 µM | OVCAR-4 > 100 µM | SF-268 > 100 µM | M14 > 100 µM | Malme-3M > 100 µM | SR > 100 µM | SK-OV-3 > 100 µM | EKVX > 100 µM | SF-295 > 100 µM | LXFL 529 > 100 µM | SK-MEL-5 > 100 µM

Cc1ccc(/N=N/c2c(C)nn(-c3ccccc3)c2C)c(Br)c1
inactive: IGROV-1 > 100 µM | HT-29 76.9 µM | SK-MEL-28 > 100 µM | NCI-H226 > 100 µM | HCT-116 41.3 µM | OVCAR-4 > 100 µM | SF-268 > 100 µM | M14 > 100 µM | Malme-3M > 100 µM | SK-OV-3 > 100 µM | EKVX > 100 µM | SF-295 > 100 µM | HOP-62 > 100 µM | LXFL 529 95.3 µM | SK-MEL-5 66.1 µM

CN(c1ccccc1)c1c(Cl)c(=O)oc2c1ccc1occc12
inactive: HT-29 > 100 µM | SK-MEL-28 > 100 µM | NCI-H226 > 100 µM | HCT-116 81.8 µM | OVCAR-4 > 100 µM | M14 > 100 µM | Malme-3M > 100 µM | SR 44 µM | EKVX 33.3 µM | SF-295 > 100 µM | LXFL 529 > 100 µM | SK-MEL-5 > 100 µM

CC1=C(C)C(=O)c2c(cc3ccccn23)C1=O
inactive: IGROV-1 24.5 µM | HT-29 18.5 µM | SK-MEL-28 19 µM | NCI-H226 26.8 µM | OVCAR-4 27.8 µM | SF-268 20.9 µM | M14 14.2 µM | Malme-3M 4.9 µM | SR 23.3 µM | SK-OV-3 20 µM | EKVX 21.3 µM | SF-295 17.1 µM | LXFL 529 15.3 µM | SK-MEL-5 10.4 µM

CCCCCCCCCCCCCCCCc1c(O)nc(NC#N)nc1C(=O)OC
inactive: HT-29 > 25 µM | SK-MEL-28 > 25 µM | NCI-H226 > 25 µM | HCT-116 > 25 µM | OVCAR-4 > 25 µM | SF-268 > 25 µM | M14 > 25 µM | Malme-3M > 25 µM | SK-OV-3 > 25 µM | EKVX > 25 µM | SF-295 > 25 µM | HOP-62 > 25 µM | LXFL 529 > 25 µM

O=C(N/N=C1\C(=O)N(c2nccs2)C(=O)C(=O)C1c1nc2ccccc2s1)c1ccccc1O (stereo not given)
inactive: IGROV-1 25.9 µM | HT-29 > 100 µM | SK-MEL-28 88.1 µM | NCI-H226 71.1 µM | HCT-116 29.9 µM | OVCAR-4 39.8 µM | SF-268 12.1 µM | M14 > 100 µM | Malme-3M > 100 µM | SK-OV-3 > 100 µM | EKVX > 100 µM | SF-295 47.5 µM | HOP-62 23.9 µM | LXFL 529 32 µM | SK-MEL-5 47.5 µM

COC(=O)C(=O)C(C#N)c1nc2ccccc2s1 (stereo not given)
inactive: IGROV-1 > 100 µM | HT-29 66.4 µM | SK-MEL-28 > 100 µM | NCI-H226 23.9 µM | HCT-116 97.1 µM | OVCAR-4 > 100 µM | SF-268 > 100 µM | M14 > 100 µM | Malme-3M > 100 µM | SK-OV-3 > 100 µM | EKVX > 100 µM | SF-295 > 100 µM | HOP-62 > 100 µM | LXFL 529 > 100 µM | SK-MEL-5 > 100 µM
